Assay results published in patent publication US20100216767A1, “QUINAZOLINES FOR PDK1 INHIBITION” (priority 2006, published 2010).
pIC50: −log10 of the molar value.

molecular target: T1, PDK1 kinase (Homo sapiens, UniProt O15530); assay: PDK1 Kinase Alpha Screen Assay; format: biochemical; settings: Table 1; 10 μM ATP, 50 nM PDK1-4 peptide
T1 sequence (O15530 1-556): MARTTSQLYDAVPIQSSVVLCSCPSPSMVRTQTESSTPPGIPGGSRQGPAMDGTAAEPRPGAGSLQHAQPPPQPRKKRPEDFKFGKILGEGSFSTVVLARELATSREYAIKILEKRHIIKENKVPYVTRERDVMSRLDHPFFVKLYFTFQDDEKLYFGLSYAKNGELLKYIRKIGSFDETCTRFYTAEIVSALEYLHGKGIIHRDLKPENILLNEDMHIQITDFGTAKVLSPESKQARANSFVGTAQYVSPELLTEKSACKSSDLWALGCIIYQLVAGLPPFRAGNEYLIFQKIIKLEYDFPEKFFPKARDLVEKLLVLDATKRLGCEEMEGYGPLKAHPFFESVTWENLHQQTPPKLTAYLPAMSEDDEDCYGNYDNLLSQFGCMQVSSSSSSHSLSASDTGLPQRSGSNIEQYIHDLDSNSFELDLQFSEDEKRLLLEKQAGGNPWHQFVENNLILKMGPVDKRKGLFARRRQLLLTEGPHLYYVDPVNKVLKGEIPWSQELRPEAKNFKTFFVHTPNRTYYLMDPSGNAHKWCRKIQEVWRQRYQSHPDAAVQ
Method: Reagents/Concentrations: The PDK1-4 peptide substrate, biotin-[…]-NH2, (SEQ ID NO: 1), was purchased from the Tufts University Core Facility. The final concentration of PDK1-4 peptide substrate was 50 nM. The ATP substrate (adenosine-[…] triphosphate) was purchased from Roche Diagnostics. The final concentration of ATP substrate was 10 μM. Phospho-(Ser/Thr) PKA substrate antibody was purchased from Cell Signaling Technology. The final concentration of antibody was 0.3 mg/mL. The Alpha Screen Protein A detection kit containing donor and acceptor beads was purchased from PerkinElmer Life Sciences. The final concentration of both donor and acceptor beads was 25 μg/mL. Alpha Screen was used for detection. The biotinylated-PDK1-4 peptide was phosphorylated by PDK1 kinase using the ATP substrate. The biotinylated-PDK1-4 peptide substrate was bound to the streptavidin coated donor bead. The antibody was bound to the protein A coated acceptor bead. The antibody bound to the phosphorylated form of the biotinylated PDK-1 peptide substrate, bringing the donor and acceptor beads into close proximity. Laser irradiation of the donor bead at 680 nm generated a flow of short-lived singlet oxygen molecules. When the donor and acceptor beads were in close proximity, the reactive oxygen generated by the irradiation of the donor beads initiated a luminescence/fluorescence cascade in the acceptor beads. This process led to a highly amplified signal with output in the 530-620 nm range. Assays were carried out in 50 mM Tris, pH=7.5, 10 mM MgCl2, 0.1% BSA, 0.01% Tween-20, 2 mM dithiolthreitol, 2.5% dimethyl sulfoxide. Reactions were stopped by adding 50 mM Tris, pH=7.5, 90 mM EDTA, 0.1% BSA, 0.01% Tween-20.
Procedure: To 10 μl, of PDK1-4 peptide, […] of test compound in dimethyl sulfoxide was added. PDK1 kinase and ATP were mixed, and 10 μL of the PDK1 kinase/ATP mix was added to start the reaction. The reaction was allowed to proceed for 3-18 hours. The reactions were then stopped by adding 10 μL of the EDTA-containing stop buffer. Beads were mixed with antibody, and 25 μL of the bead/antibody mix was then added to the stopped reactions. Plates were incubated at room temperature overnight to allow for detection development before being read. The assay was run in a 384-well format plate.

| SMILES | pIC50 |
| --- | --- |
| CC(=O)Nc1cc(CN(C)C)cc(Nc2ncc3cc(-c4nccs4)ccc3n2)c1 [Example 84, N-(3-((dimethylamino)-methyl)-5-(6-(thiazol-2-yl)quinazolin-2-ylamino)-phenyl)acetamide] | > 5.30 |
| COc1cc2nc(Nc3ccc(S(=O)(=O)N4CCOCC4)cc3)ncc2cc1Br [Example 48, 6-bromo-7-methoxy-N-(4-(morpholinosulfonyl)phenyl)-quinazolin-2-amine] | > 5.30 |
| COc1cc2nc(Nc3cc(CN(C)C)cc(NC(C)=O)c3)ncc2cc1-c1nccs1 [Example 122, N-(3-((dimethylamino)-methyl)-5-(7-methoxy-6-(thiazol-2-yl)quinazolin-2-ylamino)phenyl)acetamide] | > 5.30 |
| CC(=O)Nc1ccc2nc(Nc3ccc(S(N)(=O)=O)cc3)ncc2c1 [Example 68, N-(2-(4-Sulfamoylphenylamino)quinazolin-6-yl)acetamide] | > 5.30 |
| C#Cc1cc2cnc(Nc3ccc(-c4nnn[nH]4)cc3)nc2cc1OC [Example 96, N-(4-(1H-tetrazol-5-yl)-phenyl)-6-ethynyl-7-methoxyquinazolin-2-amine] | > 5.30 |
| C#Cc1cc2cnc(Nc3ccc(C(=O)N4CCOCC4)cc3)nc2cc1OC [Example 74, (4-(6-ethynyl-7-methoxy-quinazolin-2-ylamino)-phenyl)(morpholino)-methanone] | > 5.30 |
| COc1cc2nc(Nc3ccc(C(=O)N4CCOCC4)c(Cl)c3)ncc2cc1Br [Example 102, (4-(6-bromo-7-methoxy-quinazolin-2-ylamino)-2-chlorophenyl)(morpholino)-methanone] | > 5.30 |
| C#Cc1cc2cnc(Nc3cccc(-n4cnnn4)c3)nc2cc1OC [Example 103, N-(3-(1H-tetrazol-1-yl)phenyl)-6-ethynyl-7-methoxyquinazolin-2-amine] | > 5.30 |
| COc1cc(Br)c(Cl)c2cnc(Nc3cc(CN(C)C)cc(NC(C)=O)c3)nc12 [Example 14, N-(3-(6-Bromo-5-chloro-8-methoxyquinazolin-2-ylamino)-5-((dimethylamino)methyl)phenyl)acetamide] | > 5.30 |

The remaining lines, values ahead:

| pIC50 | SMILES |
| --- | --- |
| > 5.30 | C#Cc1cc(F)c2nc(Nc3cc(CN(C)C)cc(NC(C)=O)c3)ncc2c1 [Example 139, N-(3-((Dimethylamino)methyl)-5-(6-ethynyl-8-fluoroquinazolin-2-ylamino)-phenyl)acetamide] |
| > 5.30 | C#Cc1cc(OC)c2nc(Nc3cccc(N4CCOCC4)c3)ncc2c1 [Example 80, 6-ethynyl-8-methoxy-N-(3-morpholinophenyl)-quinazolin-2-amine] |
| > 5.30 | C#Cc1cc(Cl)c2nc(Nc3cc(CN(C)C)cc(NC(C)=O)c3)ncc2c1 [Example 7, N-(3-(8-Chloro-6-ethynylquinazolin-2-ylamino)-5((dimethylamino)methyl)-phenyl)acetamide] |
| > 5.30 | NS(=O)(=O)c1ccc(Nc2ncc3cc(-c4cc[nH]n4)ccc3n2)cc1 [Example 67, 4-(6-(1H-pyrazol-3-yl)-quinazolin-2-ylamino)-benzenesulfonamide] |
| > 5.30 | NS(=O)(=O)c1ccc(Nc2ncc3cc(-c4nccs4)ccc3n2)cc1 [Example 27, 4-(6-(Thiazol-2-yl)quinazolin-2-ylamino)benzenesulfonamide] |
| > 5.30 | C#Cc1ccc2nc(Nc3cc(CN4CCOCC4)cc(NS(C)(=O)=O)c3)ncc2c1 [Example 143, N-(3-(6-ethynylquinazolin-2-ylamino)-5-(morpholino-methyl)phenyl)methane-sulfonamide] |
| > 5.30 | N#Cc1ccc2nc(Nc3ccc(C(N)=O)cc3)ncc2c1 [Example 78, 4-(6-cyanoquinazolin-2-ylamino)benzamide] |
| > 5.30 | Cc1ccc2nc(Nc3ccc(S(N)(=O)=O)cc3)ncc2c1 [Example 54, 4-(6-methylquinazolin-2-ylamino)benzene-sulfonamide] |
| > 5.30 | C#Cc1cc2cnc(Nc3ccc(-n4cnnn4)cc3)nc2cc1OC [Example 97, N-(4-(1H-tetrozol-1-yl)phenyl)-6-ethynyl-7-methoxyquinazolin-2-amine] |
